In experiment [1] the target is T1, α2C receptor (Homo sapiens, UniProt P18825).
T1 construct: expressed in transfected cells; host or cells: CHO-K1
T1 sequence (P18825 1-462): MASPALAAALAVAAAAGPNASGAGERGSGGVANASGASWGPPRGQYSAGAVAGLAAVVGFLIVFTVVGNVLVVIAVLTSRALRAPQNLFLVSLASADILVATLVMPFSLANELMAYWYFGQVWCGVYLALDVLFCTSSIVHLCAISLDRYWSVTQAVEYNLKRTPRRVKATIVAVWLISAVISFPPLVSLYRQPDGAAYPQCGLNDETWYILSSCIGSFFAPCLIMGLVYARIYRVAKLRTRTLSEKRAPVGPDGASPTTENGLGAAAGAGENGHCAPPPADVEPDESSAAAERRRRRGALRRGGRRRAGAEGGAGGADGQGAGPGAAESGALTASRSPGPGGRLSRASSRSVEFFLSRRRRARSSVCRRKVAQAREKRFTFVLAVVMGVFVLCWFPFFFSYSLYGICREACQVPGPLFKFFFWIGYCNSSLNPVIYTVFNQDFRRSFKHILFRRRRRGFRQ
Briefly: Competitive receptor binding assay, α2C (3H-RX821002, CHO-K1-α2C membranes). As to the method: (§1) Test sample (compound): The theoretical sample weighing amount was calculated according to the designed concentration and the required volume. Generally, the test sample was dissolved in DMSO to an initial preparation dose of 5.0 × 10^-3 M, and the solution was sequentially diluted with DMSO to 5.0 × 10^-4 M-5.0 × 10^-9 M; the diluted DMSO solution was diluted with Buffer to a working concentration of 5.0 × 10^-5 M-5.0 × 10^-11 M; and the final concentration of DMSO in the working solution was 1% (the final concentration of DMSO in the reaction system was 0.2%). The test sample was prepared and then stored at 4 °C. After the test was completed, the test sample was discarded.
(§2) CHO-K1-α1A, CHO-K1-α2A, CHO-K1-α2B, and CHO-K1-α2C cells were taken out of a refrigerator at -80 °C, thawed naturally, and centrifuged at 2000 g at 4 °C for 10 min. The supernatant was discarded, and the pellet was collected. […] The supernatant was discarded, and the buffer was added again. […] The supernatant was discarded, and the pellet was collected and stored at -80 °C.
(§3) Table 1. Experimental conditions for radioactive binding
(§4) Step 1: 50 µL of a vehicle (1% DMSO) was added to a total binding tube (TB), 50 µL of a non-labeled substance (with a final concentration of 1.0 × 10^-5 M) was added to a non-specific binding tube (NB), and 50 µL of a test compound was added to each test compound tube (CB).
(§5) Step 2: 100 µL of a buffer was added to each reaction tube.
(§6) Step 3: The prepared membrane was suspended in a buffer to give a membrane suspension with a corresponding concentration for later use.
(§7) Step 4: 50 µL of the corresponding radioligand was added to each reaction tube.
(§8) Step 5: 50 µL of the membrane suspension was added to each reaction tube.
(§9) Step 6: Each reaction tube was incubated according to the incubation conditions. After the reaction was completed, the binding ligands were rapidly filtered under reduced pressure. The UniFilter GF/C plate was saturated with a 0.5% PEI solution 1 h in advance, fully washed with an ice-cold Tris-HCl buffer, filtered under vacuum, then placed into a thermostatic dryer, and dried for 30 min. The filter plate was taken out, and a MICROSCINT PS scintillation solution was added at 40 µL/well.
(§10) Step 7: The scintillation vial was put into a liquid scintillation counter for counting.
(§11) Based on the effect values of the compound samples at different concentration test points, the GraphPad Prism software was used to fit the action curves of the compound samples to the receptors, and the Ki values were calculated.

For experiment [2], the target named is T2, α1A adrenoceptor (Homo sapiens, UniProt P35348).
T2 construct: host or cells: 293
T2 sequence (P35348 1-466): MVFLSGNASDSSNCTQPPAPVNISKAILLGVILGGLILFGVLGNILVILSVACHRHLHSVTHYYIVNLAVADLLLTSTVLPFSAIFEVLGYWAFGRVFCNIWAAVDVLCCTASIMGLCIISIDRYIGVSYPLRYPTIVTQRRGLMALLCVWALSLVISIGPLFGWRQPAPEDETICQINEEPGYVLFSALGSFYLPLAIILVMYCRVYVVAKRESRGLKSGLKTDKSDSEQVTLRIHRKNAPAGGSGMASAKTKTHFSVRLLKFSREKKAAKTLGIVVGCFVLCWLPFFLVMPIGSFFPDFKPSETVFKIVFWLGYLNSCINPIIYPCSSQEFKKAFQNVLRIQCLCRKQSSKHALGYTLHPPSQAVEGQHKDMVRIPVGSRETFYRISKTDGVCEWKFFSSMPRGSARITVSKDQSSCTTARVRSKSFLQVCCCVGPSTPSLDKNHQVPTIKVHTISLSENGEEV
Briefly: Agonist screening mode IP-One assay, 293-α1A cells. Type of experiment: cell-based. As to the method: (§12) The cells were centrifuged at 1000 rpm for 5 min, and the supernatant was discarded. 3 mL of PBS was added, and the mixture was gently pipetted to be mixed well. The cells were centrifuged again at 1000 rpm for 5 min, and the supernatant was discarded. […] After shaking, the assay plates were left to stand at room temperature for 60 min. • (8) Experimental readings: The plate was read on Envision, readings from the 665 nm and 615 nm channels were taken, and the ratio of 665 nm/615 nm readings was calculated.

In experiment [3] the target is T3, α2C adrenoceptor (Homo sapiens, UniProt P18825).
T3 construct: host or cells: CHO
T3 sequence (P18825 1-462): T1 sequence (P18825 1-462)
Briefly: Agonist screening mode IP-One assay, CHO-α2C/Gα15 cells. In kind it is cell-based. As to the method:
as §12

Experiment [4] addresses T4, α2B adrenoceptor (Homo sapiens, UniProt P18089).
T4 construct: host or cells: CHO
T4 sequence (P18089 1-450): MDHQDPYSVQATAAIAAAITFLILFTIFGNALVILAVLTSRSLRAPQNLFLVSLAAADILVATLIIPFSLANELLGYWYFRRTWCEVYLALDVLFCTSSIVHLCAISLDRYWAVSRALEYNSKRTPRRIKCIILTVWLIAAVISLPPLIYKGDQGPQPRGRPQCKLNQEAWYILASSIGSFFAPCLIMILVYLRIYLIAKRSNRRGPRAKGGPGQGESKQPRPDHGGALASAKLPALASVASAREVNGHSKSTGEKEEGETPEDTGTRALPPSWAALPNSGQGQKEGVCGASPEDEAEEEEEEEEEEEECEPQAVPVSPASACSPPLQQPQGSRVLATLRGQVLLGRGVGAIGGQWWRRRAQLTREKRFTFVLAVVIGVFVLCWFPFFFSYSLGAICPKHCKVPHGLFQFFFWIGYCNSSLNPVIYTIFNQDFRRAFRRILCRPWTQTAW
Briefly: Agonist screening mode IP-One assay, CHO-α2B/Gα15 cells. In kind it is cell-based. As to the method: as §12

The target of experiment [5] is T5, α2B receptor (Homo sapiens, UniProt P18089).
T5 construct: expressed in transfected cells; host or cells: CHO-K1
T5 sequence (P18089 1-450): T4 sequence (P18089 1-450)
Briefly: Competitive receptor binding assay, α2B (3H-RX821002, CHO-K1-α2B membranes). On the procedure: as §1, §2, §3, §4, §5, §6, §7, §8, §9, §10, §11

In experiment [6] the target is T6, α1A receptor (Homo sapiens, UniProt P35348).
T6 construct: expressed in transfected cells; host or cells: CHO-K1
T6 sequence (P35348 1-466): T2 sequence (P35348 1-466)
Briefly: Competitive receptor binding assay, α1A (3H-Prazosin, CHO-K1-α1A membranes). On the procedure: as §1, §2, §3, §4, §5, §6, §7, §8, §9, §10, §11

The mark [7] stands for this setting: Ki, CHO-K1-α2C membranes, 3H-RX821002, read-out: Binding α2C.
[8] abbreviates: Ki, CHO-K1-α2B membranes, 3H-RX821002, read-out: Binding α2B.
Where [9] appears, read: Ki, CHO-K1-α1A membranes, 3H-Prazosin, read-out: Binding α1A.

Where a name gives a salt, the structure may show the parent alone. Read-outs that look alike come from different tables or passages of the source. Bounds are passed on as bounds.

One may read the EC50 as the concentration that produces a half-maximal response. Lower therefore signals a more potent agent. On to `c1cc2c(c(Cc3c[nH]cn3)c1)SCCC2` [Compound 1, 4-[1-(Thiochroman-8-yl)methyl]-1H-imidazole], for which the Ki in experiment [1] (setting [7]) was found to be 29.3 nM; in experiment [5] (setting [8]) it was 59.1 nM; in experiment [6] (setting [9]) it was 67.9 nM. Also, the EC50 worked out at 3.16 nM in experiment [2], 15.3 nM in experiment [3] and 4.09 nM in experiment [4].
As to `CC(c1c[nH]cn1)c1cccc2c1SCCC2` (stereo not drawn) [Compound 2, 4-(1-[Thiochroman-8-yl)ethyl]-1H-imidazole], the Ki in experiment [1] (setting [7]) was determined as 13.8 nM; in experiment [5] (setting [8]), 11.7 nM; in experiment [6] (setting [9]), 91.2 nM. Also, the figures for the half-maximal effective concentration (EC50) in experiment [2], in experiment [3] and in experiment [4] were 5.32 nM, 18.4 nM and 3.03 nM, respectively.
For the molecule `CC(c1c[nH]cn1)c1cccc2c1CC2` (stereo not drawn) [Compound 3, 4-(1-(Bicyclo[4.2.0]octa-1(6),2,4-trien-2-yl)ethyl)-1H-imidazole], the Ki was 26.1 nM in experiment [1], 62.3 nM in experiment [5] and 1130 nM in experiment [6]. Besides, the EC50 turned out to be 57 nM in experiment [2], 191 nM in experiment [3] and 5.51 nM in experiment [4].
Consider `CC(c1c[nH]cn1)c1cccc2c1CCCC2` (stereo not drawn) [Compound 4, 4-(1-(5,6,7,8-Tetrahydronaphthalen-1-yl)ethyl)-1H-imidazole], for which the values for the Ki in experiment [1], in experiment [5] and in experiment [6] were 46.1 nM, 64.6 nM and 2050 nM, respectively. Moreover, the EC50 in experiment [2] was 25.1 nM; in experiment [3], 278 nM; in experiment [4], 54.4 nM.
Turning to `CC(c1c[nH]cn1)c1cccc2c1C=CC2` (stereo not drawn) [Compound 8, 4-[1-(1H-Inden-4-yl)ethyl]-1H-imidazole], the Ki in experiment [1] was determined as 18.9 nM; in experiment [5], 37.7 nM; in experiment [6], 1130 nM. For the same molecule, the EC50 in experiment [2] was 21.8 nM; in experiment [3], 9.89 nM; in experiment [4], 17.7 nM.
For the molecule `CC(c1c[nH]cn1)c1cccc2c1OCC2` (stereo not drawn) [Compound 10, 4-[1-(2,3-Dihydrobenzofuran-7-yl)ethyl]-1H-imidazole], the Ki came out at 6.44 nM in experiment [1], 6.05 nM in experiment [5] and 766 nM in experiment [6]. In addition, the EC50 in experiment [2] came to 24.1 nM; in experiment [3] it was 3.99 nM; in experiment [4] it was 1.66 nM.
Regarding `C[C@H](c1c[nH]cn1)c1cc(F)cc2c1C=CC2` [Compound 11-b, 4-[(1S)-1-(6-fluoro-1H-inden-4-yl)ethyl]-1H-imidazole], the Ki in experiment [1] was found to be 23.8 nM; in experiment [5], 54.8 nM; in experiment [6], 671 nM. In addition, the EC50 in experiment [2] was 36.8 nM; in experiment [3], 0.87 nM; in experiment [4] it was 2.55 nM.
For `CC(c1c[nH]cn1)c1cccc2c1C=CC2(C)C` (stereo not drawn) [Compound 17, 4-[1-(1,1-Dimethyl-1H-inden-4-yl)ethyl]-1H-imidazole], the Ki in experiment [1] is 594 nM; in experiment [5], 244 nM; in experiment [6], over 10000 nM. The results for the concentration for a half-maximal effect (EC50) in experiment [2], in experiment [3] and in experiment [4] were 104 nM, 134 nM and 6.59 nM, respectively.
As to `C[C@H](c1c[nH]cn1)c1cccc2c1CCC2` [Compound 31-b, (S)-4-[1-(2,3-dihydro-1H-inden-4-yl)ethyl]-1H-imidazole], the Ki was 10.8 nM in experiment [1], 32.9 nM in experiment [5] and 424 nM in experiment [6]. Further, the EC50 in experiment [2] turned out to be 7.94 nM; in experiment [3] it was 1.78 nM; in experiment [4], 1.08 nM.
On to `CC1Cc2cccc(C(C)c3c[nH]cn3)c2O1` (stereo not drawn) [Compound 32, 4-[1-(2-Methyl-2,3-dihydrobenzofuran-7-yl)ethyl]-1H-imidazole], for which the Ki turned out to be 26.1 nM in experiment [1], 28.1 nM in experiment [5] and 137 nM in experiment [6]. The values for the 50% effective concentration (EC50) in experiment [2], in experiment [3] and in experiment [4] were 4.73 nM, 8.13 nM and 2.23 nM, respectively.
As to `C[C@H](c1c[nH]cn1)c1cc(F)cc2c1C(=O)CC2` [Compound 38-b, (S)-7-(1-(1H-imidazol-4-yl)ethyl)-5-fluoro-2,3-dihydro-1H-inden-1-one], the values for the Ki in experiment [1] (setting [7]), in experiment [5] (setting [8]) and in experiment [6] (setting [9]) were 36.4 nM, 49.1 nM and 3160 nM, respectively. Moreover, the concentration giving a half-maximal response (EC50) in experiment [2] was 9.75 nM; in experiment [3] it was 2.21 nM; in experiment [4], 3.84 nM.
Turning to `Cc1cccc([C@H](C)c2cnc[nH]2)c1C` [Dexmedetomidine hydrochloride, reference compound], the Ki in experiment [1] (setting [7]) came out at 7.34 nM; in experiment [5] (setting [8]) it was 3.66 nM; in experiment [6] (setting [9]) it was 593 nM. In addition, the EC50 stood at 9.55 nM in experiment [2], 2.05 nM in experiment [3] and 0.96 nM in experiment [4].

The values are drawn from patent EP4729516A1, “S[…] DERIVATIVE, INTERMEDIATE, PREPARATION METHOD THEREFOR AND USE THEREOF” (Jiangsu NHWA Pharmaceutical Co., Ltd, priority 2023, dated 2024).
